# Source: ChEMBL document CHEMBL3639064, “Piperazine compound capable of inhibiting prostaglandin D synthase” (2014)
# Molecular target: Hematopoietic prostaglandin D synthase (Homo sapiens, UniProt O60760)
# Assay: Inhibition Assay: The test was carried out according to the method of Urade, Y. et al. (J. Biol. Chem., 262, 3820-3825, (1987)). More specifically, the reaction mixture (49 uL) containing 100 mM Tris-HCl (pH 8.0), 1 mM reduced glutathione, 0.1 mg/mL gamma-globulin, and human H-PGDS (q.s.), and a compound (final concentration: 0.01-100 uM) was preincubated at 25 C. for 5 minutes. Note that a DMSO solution (final concentration: 1%) was added to the solvent control group. Subsequently, 1 uL of [14C] prostaglandin H2 (final concentration: 10 uM) was added to start the reaction. One minute after the start of the reaction, 250 uL of a reaction stopper solution (diethylether/methanol/1 M citric acid (30/4/1) at a temperature of -20 C. was added to stop the reaction. After the reaction was stopped, 50 uL of the upper layer portion (organic solvent phase) was applied to a TLC plate and developed at -20 C. for 45 minutes.
# Sequence of Hematopoietic prostaglandin D synthase (O60760 whole entry): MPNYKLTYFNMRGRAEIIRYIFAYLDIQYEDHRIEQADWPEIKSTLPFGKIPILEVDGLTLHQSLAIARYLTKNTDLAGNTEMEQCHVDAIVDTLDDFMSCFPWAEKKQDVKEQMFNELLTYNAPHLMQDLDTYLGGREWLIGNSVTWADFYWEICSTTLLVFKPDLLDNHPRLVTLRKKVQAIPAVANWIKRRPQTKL
row,IC50,Structure (SMILES)
1,32 nM,Cn1cccc1C(=O)N1CCN(C(=O)Nc2ccc(N3CCC(C(=O)N4CCCCC4)CC3)cc2)CC1
2,71 nM,Cn1cccc1C(=O)N1CCN(C(=O)Nc2ccc(N3CCC(CCn4ccnn4)CC3)cc2)CC1
3,43 nM,Cn1cccc1C(=O)N1CCN(C(=O)Nc2ccc(N3CCC(CCN4CCOCC4)CC3)cc2)CC1
4,85 nM,Cc1nc(C)n(CCC2CCN(c3ccc(NC(=O)N4CCN(C(=O)c5cccn5C)CC4)cc3)CC2)n1
5,54 nM,Cn1cccc1C(=O)N1CCN(C(=O)Nc2ccc(N3CCC(CN4CCOCC4)CC3)cc2)CC1
6,40 nM,Cn1cccc1C(=O)N1CCN(C(=O)Nc2ccc(N3CCC(CCn4cccn4)CC3)cc2)CC1
7,59 nM,Cn1cccc1C(=O)N1CCN(C(=O)Nc2ccc(N3CCC(C(=O)NCCN4CCOCC4)CC3)cc2)CC1
8,60 nM,Cn1cccc1C(=O)N1CCN(C(=O)Nc2ccc(N3CCC(C(=O)NCc4cccnc4)CC3)cc2)CC1
9,37 nM,Cn1cccc1C(=O)N1CCN(C(=O)Nc2ccc(N3CCC(CCCn4ccnn4)CC3)cc2)CC1
10,60 nM,CN1CCN(C(=O)C2CCN(c3ccc(NC(=O)N4CCN(C(=O)c5cccn5C)CC4)cc3)CC2)CC1
11,67 nM,Cn1cccc1C(=O)N1CCN(C(=O)Nc2ccc(N3CCC(CCn4cncn4)C3)cc2)CC1 (stereo unspecified)
